Data: patent US11672786B2, “Methods of treating diseases associated with repeat instability” (The Hospital for Sick Children, priority 2016, dated 2023)

Tests used:
[1] = test system: fully-duplexed (CAG)50●(CTG)50; assay: band-shift NA-DNA binding, fully-duplexed repeat; parameters: species or system human; conditions: NA 0.15-50 μM, 4% polyacrylamide gel
From the text: FIG. 2 are the results of experiments showing that NA binds to long CAG slip-outs. […] The (CAG)n DNA sequence (left) can fold into an hairpin structure involving mismatched A-A pair flanking C-G base pairs (middle). NA molecules can intercalate into the DNA helix, with the 2-amino-1,8-naphthyridine moiety (in red) hydrogen bonding to guanine and 8-azaquinolone moiety (in blue) hydrogen bonding to adenine. […] Long slip-outs extruded as a single slip-out from a fully base-paired backbone of (CTG)n●(CAG)n, as described (Pearson et al., 2002, Nuc. Acids Res., 30:4534-47). DNAs were mixed with increasing concentrations of NA (0.15 μM, 0.75 μM, 7.5 μM and 50 μM) and resolved on 4% polyacrylamide gels. All lanes are from the same gel, and they were separated for clarity. NA-DNA complexes are shown by brackets, free DNA is indicated by arrowheads. […] The relative migration was measured for the linear and the three slip-outs substrates as the ratio of the migration distance of each NA-DNA complex to the migration distance of the free DNA. The migration distance was measured from the well to a consistent center point of each band. […]

[2] = test system: plasmids pDM79EF, pDM79HF, pKN16 with SV40 origin of replication; assay: in vitro SV40 replication assay by HeLa cell extracts; format: biochemical, human; conditions: NA 7.5 μM or 15 μM
Description: Three circular plasmids containing the SV40 origin of replication, and an expanded (CAG)79●(CTG)79 repeat tract (pDM79EF and pDM79HF) or no repeats (pKN16), were replicated in vitro by human HeLa cell extracts and added recombinant SV40 T-Ag, without or with NA (7.5 μM or 15 μM) treatment. […] Replication products were purified and linearized with BanHI. An equal portion of the reaction material was also digested with BamHI and DpnI; DpnI digests un-replicated and partially-replicated material, as shown in the schematic (top figure).
These templates containing repeats (pDM79EF and pDM79HF) and another substrate with SV40-ori and no-repeats (pKN16) were replicated in vitro by HeLa cell extract adding [α-^32P]dCTP and T-Antigen, as described in detail in Panigrahi et al. (2002, J. Biol. Chem., 277:13926-34) and Cleary et al. (2002, Nat. Genet., 31(1):37-46). Replication reaction was performed without or with NA (7.5 μM and 15 μM). Radioactive replication products were purified, linearized with BamHI, and treated with DpnI (for details see FIG. 9). […] Equal quantities of reaction products were resolved by electrophoresis on a 15-cm 1% agarose gel. The gel was run for 16 h at 4 V/cm in TBE buffer, dried, and exposed to Kodak film.

naphthyridine-azaquinolone
NA binding (band-shift) [1]: did not bind
effect on replication efficiency and replication fork progression [2]: does not affect replication efficiency or replication fork progression
